Source: publication PMC6131351, “Pharmacological difference between degrader and inhibitor against oncogenic BCR-ABL kinase” (Scientific Reports, 2018)

Key:
ABL1 = molecular target: T1, ABL1 (Homo sapiens, UniProt P00519); assay: TR-FRET binding assay, ABL1 (BODIPY-dasatinib probe); details: concentration required to inhibit the probe binding to ABL by 50%, read-out: Binding affinity IC50 ABL
T1 construct: the His-tagged ABL1 protein (full length, P3049) were from Life Technologies; purchased Life Technologies P3049
T1 sequence (P00519 whole entry): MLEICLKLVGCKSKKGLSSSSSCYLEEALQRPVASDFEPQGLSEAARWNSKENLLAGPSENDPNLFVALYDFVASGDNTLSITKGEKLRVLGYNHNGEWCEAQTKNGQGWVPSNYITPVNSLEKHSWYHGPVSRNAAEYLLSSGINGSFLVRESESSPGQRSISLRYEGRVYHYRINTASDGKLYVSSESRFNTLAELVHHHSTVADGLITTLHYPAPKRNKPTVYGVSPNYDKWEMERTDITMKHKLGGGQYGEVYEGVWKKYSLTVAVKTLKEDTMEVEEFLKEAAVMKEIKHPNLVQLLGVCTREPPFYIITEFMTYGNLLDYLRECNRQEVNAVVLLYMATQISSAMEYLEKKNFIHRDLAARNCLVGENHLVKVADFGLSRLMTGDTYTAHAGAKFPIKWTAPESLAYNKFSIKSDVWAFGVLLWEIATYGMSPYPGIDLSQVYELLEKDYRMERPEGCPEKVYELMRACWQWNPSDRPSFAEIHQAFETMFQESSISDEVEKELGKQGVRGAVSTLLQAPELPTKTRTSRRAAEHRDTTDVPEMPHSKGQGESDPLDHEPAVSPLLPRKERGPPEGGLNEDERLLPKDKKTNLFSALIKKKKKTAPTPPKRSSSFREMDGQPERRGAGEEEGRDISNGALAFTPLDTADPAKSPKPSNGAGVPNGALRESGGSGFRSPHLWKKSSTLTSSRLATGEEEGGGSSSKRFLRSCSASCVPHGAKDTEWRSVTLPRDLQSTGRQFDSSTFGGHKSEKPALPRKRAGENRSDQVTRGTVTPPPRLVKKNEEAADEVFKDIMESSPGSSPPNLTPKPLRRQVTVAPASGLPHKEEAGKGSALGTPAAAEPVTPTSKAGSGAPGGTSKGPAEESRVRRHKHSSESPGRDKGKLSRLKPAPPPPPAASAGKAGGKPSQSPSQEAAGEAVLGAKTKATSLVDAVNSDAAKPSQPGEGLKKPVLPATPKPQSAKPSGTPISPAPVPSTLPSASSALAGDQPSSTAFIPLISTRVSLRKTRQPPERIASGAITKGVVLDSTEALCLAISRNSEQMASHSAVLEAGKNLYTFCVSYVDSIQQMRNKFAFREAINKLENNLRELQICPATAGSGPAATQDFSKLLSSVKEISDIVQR
Experimental: The TR-FRET assay was carried out using 384-well white flat-bottom plates (Greiner Bio-One) and the signal was measured using an EnVision Multilabel Plate Reader (PerkinElmer, Waltham, MA, USA).
(§1) The half maximal inhibitory concentration (IC50) of test compounds was calculated by fitting the data with the logistic equation using GraphPad Prism 5 (GraphPad Software, Inc., La Jolla, CA, USA) or XLfit (IDBS, Guildford, UK).
Before addition to the assay plate, 3-fold concentrations of the His-ABL1 protein, Tb-SA and the biotinylated anti-His antibody were mixed in the assay buffer and incubated for over 1 h at room temperature. Several concentrations of test inhibitors dissolved in the assay buffer were dispensed in the assay plate. […] The plate was incubated for 30 min at room temperature and the TR-FRET signal was measured using the EnVision Multilabel Plate Reader.

cIAP1 (BIR3) = molecular target: T2, cIAP1 (BIR3) (Homo sapiens, UniProt Q13490); assay: TR-FRET IAP/Smac peptide interaction assay, cIAP1; details: FITC-Smac probe, read-out: Binding affinity IC50 cIAP1
T2 construct: human cIAP1 (BIR3, Leu250-Gly350); made in house; host or cells: E. coli
T2 sequence (Q13490 250-350): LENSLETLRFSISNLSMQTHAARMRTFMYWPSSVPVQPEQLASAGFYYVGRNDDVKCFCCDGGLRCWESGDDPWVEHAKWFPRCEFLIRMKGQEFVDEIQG
Experimental: (§2) The TR-FRET assay was carried out using 384-well white flat-bottom plates (Greiner Bio-One) and the signal was measured using an EnVision Multilabel Plate Reader (PerkinElmer, Waltham, MA, USA). The solution in each well was excited with a laser (λ = 337 nm) reflected by a dichroic mirror (D400/D505 (Perkin Elmer) and fluorescence from terbium (Tb) and BODIPY or FITC was detected through two emission filters (CFP 486 (Perkin Elmer) for Tb and Emission 515 (Perkin Elmer) for BODIPY and FITC). The assay buffer used in this study was composed of 50 mM HEPES (pH 7.2–7.5), 10 mM MgCl2, 1 mM EGTA, 0.1 mM DTT and 0.01% (v/v) Brij^(R) 35. All assays were carried out at room temperature in triplicate or quadruplicate formats.
as §1
(§3) His-IAP proteins (XIAP, cIAP1 or cIAP2), FITC-Smac, Tb-SA and the biotinylated anti-His antibody (Life Technologies) were mixed in the assay buffer and incubated for over 1 h at room temperature before addition to the assay plate. […] After 1 h incubation at room temperature, the TR-FRET signal was measured using the EnVision Multilabel Plate Reader. […]

XIAP (BIR3) = molecular target: T3, XIAP (BIR3) (Homo sapiens, UniProt P98170); assay: TR-FRET IAP/Smac peptide interaction assay, XIAP; details: FITC-Smac probe, read-out: Binding affinity IC50 XIAP
T3 construct: human XIAP (BIR3, Asn252-Thr356, 895-XB-050); purchased R&D Systems 895-XB-050
T3 sequence (P98170 252-356): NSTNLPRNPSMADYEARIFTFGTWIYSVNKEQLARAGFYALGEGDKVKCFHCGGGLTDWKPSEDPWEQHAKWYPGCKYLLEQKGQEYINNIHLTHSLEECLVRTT
Experimental: as §2, §1, §3

Jurkat cells = assay: WST cell growth inhibition, Jurkat (BCR-ABL negative); assay type: cell-based; details: Homo sapiens, 48 h, WST assay, means ± SD (n = 3)
BCR-ABL protein = molecular target: T4, BCR-ABL protein (Homo sapiens, UniProt P00519+P11274); assay: Washout experiment, BCR-ABL protein level by western blot in K562 cells; assay type: cell-based; details: K562, 50 times IC50 for 12 h, BCR-ABL/β-tubulin
T4 construct: examined for their activity to degrade BCR-ABL in K562 cells for 6 h; BCR (fusion partner, P11274, N-terminal part); endogenous in cells; host or cells: K562
T4 sequence (P11274+P00519 fused): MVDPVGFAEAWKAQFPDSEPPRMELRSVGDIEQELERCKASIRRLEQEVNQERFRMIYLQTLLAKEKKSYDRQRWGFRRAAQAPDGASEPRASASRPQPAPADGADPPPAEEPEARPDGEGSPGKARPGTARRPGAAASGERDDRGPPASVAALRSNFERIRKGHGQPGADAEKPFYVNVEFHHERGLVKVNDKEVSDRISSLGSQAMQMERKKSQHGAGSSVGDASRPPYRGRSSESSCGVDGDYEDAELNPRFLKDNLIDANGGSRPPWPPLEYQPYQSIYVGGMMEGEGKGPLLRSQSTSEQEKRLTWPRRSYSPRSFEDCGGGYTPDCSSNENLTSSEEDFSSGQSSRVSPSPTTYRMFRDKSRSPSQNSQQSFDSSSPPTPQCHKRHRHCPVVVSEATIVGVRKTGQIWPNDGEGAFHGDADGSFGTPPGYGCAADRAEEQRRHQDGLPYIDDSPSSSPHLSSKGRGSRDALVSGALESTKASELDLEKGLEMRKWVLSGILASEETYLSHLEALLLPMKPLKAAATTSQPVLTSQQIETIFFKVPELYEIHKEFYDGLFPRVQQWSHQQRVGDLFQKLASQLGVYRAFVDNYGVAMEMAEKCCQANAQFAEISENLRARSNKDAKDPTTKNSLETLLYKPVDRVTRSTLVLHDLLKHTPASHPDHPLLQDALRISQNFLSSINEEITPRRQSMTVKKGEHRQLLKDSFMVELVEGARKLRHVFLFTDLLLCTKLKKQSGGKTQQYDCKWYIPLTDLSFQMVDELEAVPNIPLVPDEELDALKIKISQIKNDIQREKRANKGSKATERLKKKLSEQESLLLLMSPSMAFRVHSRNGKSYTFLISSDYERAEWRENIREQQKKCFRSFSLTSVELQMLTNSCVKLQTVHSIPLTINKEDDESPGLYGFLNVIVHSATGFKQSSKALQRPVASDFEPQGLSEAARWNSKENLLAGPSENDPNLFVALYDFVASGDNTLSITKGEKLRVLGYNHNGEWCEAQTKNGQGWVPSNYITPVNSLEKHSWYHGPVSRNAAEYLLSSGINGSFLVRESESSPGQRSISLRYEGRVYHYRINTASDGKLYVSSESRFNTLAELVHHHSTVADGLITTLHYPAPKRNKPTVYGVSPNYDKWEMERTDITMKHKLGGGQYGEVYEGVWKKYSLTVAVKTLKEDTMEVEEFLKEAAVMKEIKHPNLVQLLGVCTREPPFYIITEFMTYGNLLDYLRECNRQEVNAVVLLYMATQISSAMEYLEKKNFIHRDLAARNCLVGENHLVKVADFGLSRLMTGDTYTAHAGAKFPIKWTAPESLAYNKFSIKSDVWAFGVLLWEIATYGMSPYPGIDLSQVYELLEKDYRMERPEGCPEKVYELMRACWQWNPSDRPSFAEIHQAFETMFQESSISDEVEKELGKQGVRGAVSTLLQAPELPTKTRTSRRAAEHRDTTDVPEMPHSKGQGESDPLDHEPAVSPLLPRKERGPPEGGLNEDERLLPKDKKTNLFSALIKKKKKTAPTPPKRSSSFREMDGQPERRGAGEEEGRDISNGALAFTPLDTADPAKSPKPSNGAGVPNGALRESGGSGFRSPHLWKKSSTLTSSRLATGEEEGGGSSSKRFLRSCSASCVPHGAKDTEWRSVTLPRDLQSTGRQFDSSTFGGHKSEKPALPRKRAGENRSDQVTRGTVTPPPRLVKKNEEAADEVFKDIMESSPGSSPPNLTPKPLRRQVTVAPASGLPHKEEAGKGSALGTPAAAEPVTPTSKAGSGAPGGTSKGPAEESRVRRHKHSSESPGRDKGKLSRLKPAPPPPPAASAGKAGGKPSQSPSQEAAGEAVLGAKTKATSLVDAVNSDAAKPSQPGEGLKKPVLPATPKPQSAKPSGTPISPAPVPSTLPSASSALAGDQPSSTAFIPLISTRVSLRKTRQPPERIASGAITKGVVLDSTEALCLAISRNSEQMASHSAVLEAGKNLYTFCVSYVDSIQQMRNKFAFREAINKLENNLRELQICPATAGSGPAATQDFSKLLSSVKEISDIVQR
Experimental: (§4) Cells were collected and lysed in a lysis buffer (0.5% Triton X-100, 0.01 M Tris-HCl (pH 7.5), 0.15 M NaCl, Complete Mini protease inhibitor cocktail (Roche Applied Science, Indianapolis, IL, USA) and PhosStop phosphatase inhibitor cocktail (Roche Applied Science)). Protein concentrations were measured by the BCA method (Thermo Fisher Scientific) and an equal amount of protein lysate was separated by SDS-PAGE, transferred to polyvinylidene difluoride membranes (Merck Millipore) and analyzed by western blot using an appropriate antibody. The immunoreactive proteins were visualized using Clarity Western ECL substrate (Bio-Rad, Hercules, CA, USA) and their light emission was quantified with a LAS-3000 lumino-image analyzer (Fuji, Tokyo, Japan).
(§5) Cells were seeded at a concentration of 2 × 10^6 cells per 10-cm tissue culture dish and treated with the indicated compounds for the indicated times. Then, the cells were washed three times to remove the compounds, and incubated in drug-free medium for the indicated times.

K562 cells = assay: Washout experiment, cell counting of K562 cells; assay type: cell-based, Human; details: washed; for growth of K562 cells after drug removal: 25 or 50 times IC50 for 12 h, drug-free medium for 6 d
Experimental: as §5

[1] = system: caspase 3 activation and PARP cleavage; assay: Caspase activation and PARP cleavage after drug removal in K562 cells; assay type: cell-based, Human; details: K562, 50 times IC50 for 12 h, drug removal for 24 h
Experimental: as §4, with “Japan). The following antibodies were used: anti-cAbl rabbit polyclonal antibody (pAb) (#2862), anti-XIAP rabbit pAb (#2042), anti-phospho-cAbl rabbit pAb (#3009), anti-STAT5 rabbit pAb (#9363), anti-phospho-STAT5 rabbit pAb (#9359), anti-CrkL mouse monoclonal antibody (mAb) (#3182) and anti-phospho-CrkL rabbit pAb (#3181), anti-PARP rabbit pAb (#9532), and anti-cleaved Caspase 3 rabbit pAb (#9664) (Cell Signaling Technology, Danvers, MA, USA); anti-β-tubulin (ab6046) rabbit pAb (Abcam, Cambridge, UK) and anti-GAPDH rabbit pAb (sc-25778 HRP) (Santa Cruz, Dallas, TX, USA); anti-cIAP1 goat pAb (AF8181) (R&D systems).” for “Japan).”
as §5

| Structure (SMILES) | IC50 (ABL1) [nM] | IC50 (cIAP1 (BIR3)) [nM] | IC50 (XIAP (BIR3)) [nM] | IC50 (Jurkat cells) [nM] | BCR-ABL % of control (BCR-ABL protein; time after washout 0 h) | BCR-ABL % of control (BCR-ABL protein; time after washout 48 h) | BCR-ABL % of control (BCR-ABL protein; time after washout 72 h) | growth of K562 cells after drug removal (K562 cells) | K562 cell number after drug removal (K562 cells; 50 times IC50 for 12 h, drug-free medium) | caspase 3 activation and PARP cleavage [1] |
| --- | --- | --- | --- | --- | --- | --- | --- | --- | --- | --- |
| CN[C@@H](C)C(=O)N[C@H](C(=O)N1CCC[C@H]1c1nc(C(=O)c2cccc(OCCOCCOCCOCC(=O)N3CCN(c4cc(Nc5ncc(C(=O)Nc6c(C)cccc6Cl)s5)nc(C)n4)CC3)c2)cs1)C1CCCCC1 [DAS-IAP] | 0.54 | 10 | 50 | 2870 ± 293 | 32 % of control | 2 % of control | 2 % of control | markedly inhibited the growth | decreased continuously | induced |
| CN[C@@H](C)C(=O)N(C)[C@H](C(=O)N1CCC[C@H]1c1nc(C(=O)c2cccc(OCCOCCOCCOCC(=O)N3CCN(c4cc(Nc5ncc(C(=O)Nc6c(C)cccc6Cl)s5)nc(C)n4)CC3)c2)cs1)C1CCCCC1 [DAS-meIAP] | < 0.24 | > 1000 | > 1000 | 2440 ± 310 | 84 % of control | 80 % of control | 73 % of control | slightly delayed the growth |  | not |
